Laboratory results reported in patent US12194003B2, “Compositions for treating acne and dermatological conditions” (priority 2020, dated 2025).
“And” between values parts separate entries of the source, which are not always exact repeats. Equal entries are not always repeated. Where two headings read alike, the source gives them in different places.

Key:
Primary human sebocytes = test: Sebocyte ATP metabolism luminescence assay (Celltiter-Glo), percent luminescence reduction; format: cell-based; details: for % Luminescence Reduction (Repeat 1, 2, 3): niacinamide 0 μM
Method: The ability of various combinations of ingredients to increase ATP metabolism is evaluated via a sebocyte assay according to the following protocol. Immortalized human sebaceous gland cell lines (sebocytes) are a well-established model for studying acne. Primary human sebocytes Batch #13140680) were obtained from Celprogen™ and grown according to manufacturer's instructions. The cells were seeded at a concentration of 5000 cells per cm^2 in a tissue culture treated flask and incubated at 37° C. in a humidified incubator in the presence of 5% CO2 (all subsequent incubations were subject to these conditions). At 60-80% confluency, cells were passaged by detaching cells using TrypLE™ Express (Sigma). Cells were seeded in a black 96-well half area plate at a concentration of 5000 cells per well and allowed to equilibrate overnight at 37° C.
[…] Various concentrations of CBD (0 μM, 1 μM, 3 μM, 10 μM, 30 μM), niacinamide (0 μM, 4 μM, 10 μM, 20 μM, 40 μM), and urolithin A (0 μM, 3 μM, 10 μM, 30 μM, 100 μM) were evaluated in triplicate. The ability of each composition to increase ATP metabolism was determined using a luminescence assay (Celltiter-Glo™) according to manufacturer's instructions.
Table 11 reports the percent luminescence reductions for cells treated with each composition compared to cells that are not administered a composition of the disclosure. This value is calculated using the formula: (1−(treatment luminescence/control luminescence))*100. The luminescence measurements in this assay are proportional to the number of metabolically active cells in a sample. Cells that are metabolically active (e.g., have functioning mitochondria) consume ATP and convert luciferin to oxyluciferin.

sebocyte = test: Sebocyte cell viability / cell death; format: cell-based, human; details: L-ergothioneine 1 nM to 100 μM; FIG. 6
Method: Sebocytes were incubated with compositions comprising CBD, niacinamide, urolithin A, or combination thereof. Various concentrations of CBD (0 μM, 1 μM, 3 μM, 10 μM, 30 μM), niacinamide (0 μM, 4 μM, 10 μM, 20 μM, 40 μM), and urolithin A (0 μM, 3 μM, 10 μM, 30 μM, 100 μM) were evaluated in triplicate. The ability of each composition to increase ATP metabolism was determined using a luminescence assay (Celltiter-Glo™) according to manufacturer's instructions.
These assays also tested the ability of the antioxidant L-ergothioneine at concentrations ranging from 1 nM to 100 μM to affect skin cell viability and influence mitochondrial function.

## C=C(C)[C@@H]1CCC(C)=C[C@H]1c1c(O)cc(CCCCC)cc1O [CBD, cannabidiol]
Primary human sebocytes; CBD 1 μM, urolithin A 0 μM
  % Luminescence Reduction (Repeat 1, 2, 3): 5% and 9%

## C[N+](C)(C)[C@@H](Cc1c[nH]c(=S)[nH]1)C(=O)[O-] [L-ergothioneine]
Primary human sebocytes; L-ergothioneine 1 nM to 100 μM, FIG. 6
  ATP metabolism: retain viability and ATP metabolism
sebocyte
  cell viability: retain viability

## NC(=O)c1cccnc1 [Niacinamide, niacinamide]
Primary human sebocytes
  Luminescence Reduction of Niacinamide Alone: 3.0
Primary human sebocytes; Niacinamide 4.0 μM
  Luminescence Reduction of Niacinamide Alone: 3.0%
Primary human sebocytes; Niacinamide 10.0 μM
  Luminescence Reduction of Niacinamide Alone: 35.0%
Primary human sebocytes; Niacinamide 20.0 μM
  Luminescence Reduction of Niacinamide Alone: 52.0%
Primary human sebocytes; Niacinamide 40.0 μM
  Luminescence Reduction of Niacinamide Alone: 90.7%
Primary human sebocytes; niacinamide 4.0 μM
  Luminescence Reduction of Niacinamide Alone: 3.0
Primary human sebocytes; niacinamide 10.0 μM
  Luminescence Reduction of Niacinamide Alone: 35.0
Primary human sebocytes; niacinamide 20.0 μM
  Luminescence Reduction of Niacinamide Alone: 52.0
Primary human sebocytes; niacinamide 40.0 μM
  Luminescence Reduction of Niacinamide Alone: 90.7

## O=c1oc2cc(O)ccc2c2ccc(O)cc12 [Urolithin A, 3,8-dihydroxybenzo[c]chromen-6-one]
Primary human sebocytes; 30 µM
  Luminescence Reduction of Urolithin A Alone: 16.7%
Primary human sebocytes; CBD 0 μM, urolithin A 30 μM
  % Luminescence Reduction (Repeat 1, 2, 3): 15% and 17% and 18%
Primary human sebocytes; CBD 0 μM, urolithin A 100 μM
  % Luminescence Reduction (Repeat 1, 2, 3): 25% and 35% and 27%
Primary human sebocytes; Urolithin A 3.0 μM
  Luminescence Reduction of Urolithin A Alone: 18.7%
Primary human sebocytes; Urolithin A 10.0 μM
  Luminescence Reduction of Urolithin A Alone: 13.3%
Primary human sebocytes; Urolithin A 100.0 μM
  Luminescence Reduction of Urolithin A Alone: 29.0%
